From patent US20090291945A1, “CYSTEINE PROTEASE INHIBITORS” (Teijin Pharma Limited, priority 2008, published 2009)

Key:
[1] = Metabolic stability test using human liver microsome; assay type: in vitro ADME; conditions: NADPH, 37° C., 25 minutes versus 0 minute, LC/MS peak area
Procedure: For the compounds synthesized according to the method of the above Examples and the compounds of formula (B) (the compounds disclosed in WO2002/070517), the metabolic stability test using the human liver microsome was performed and the residual rate of each compound was calculated.
To a human liver microsome solution (950 μL) was added a test compound solution (10 μL, 100 μM, acetonitrile solution) on an ice bath and the solution was divided into two equal parts, solution A and solution B. Note that the composition of the human liver microsome solution was as follows.
20 mg/mL protein human liver microsome (Xenotech LLC Lenexa, US): 10 μL 500 mM potassium phosphate buffer solution (pH 7.4): 200 μL 10 mM EDTA solution: 100 μL 60 mM MgCl2 solution: 50 μL 100 mM glucose-6-phosphate solution: 50 μL 100 I.U./mL glucose-6-phosphate dehydrogenase solution: 10 μL purified water: 530 μL
To the solution A (480 μL) was added acetonitrile (500 μL) on an ice bath, and then 25 mM NADPH solution (20 μL) was added. After vortexing, the mixture was centrifuged (3,000 rpm) at 4° C. for 10 minutes, and the supernatant was taken as the sample at the reaction time of 0 minute.
To the solution B (480 μL) was added 25 mM NADPH solution (20 μL). The mixture was incubated at 37° C. for 25 minutes. The reaction was quenched with acetonitrile (500 μL) and vortexing. The mixture was centrifuged (3,000 rpm) at 4° C. for 10 minutes, and the supernatant was taken as the sample at the reaction time of 25 minutes.
LC/MS measurement was performed for the samples at the reaction time of 0 minute and the reaction time of 25 minutes. Based on the peak area of the target molecular weight in the MS measurement, the residual rate of the sample at the reaction time of 25 minutes to the sample at the reaction time of 0 minute was calculated in percentage.

cathepsin K = target: T1, cathepsin K (Homo sapiens, UniProt P43235); test: Cathepsin K inhibitory activity (fluorescent substrate Z-Leu-Arg-MCA); assay type: biochemical; conditions: enzyme expressed in HEK293T; 15 min preincubation, 30 min reaction at room temperature, pH 5.5; read-out: Activity Intensity (cathepsin K inhibitory activity, pIC50 class) (converted)
T1 construct: the active enzyme was obtained as the enzyme fraction by using detergent containing lysis buffer; made in house; host or cells: HEK293T (GenHunter Corporation), transient expression; detergent lysate used as enzyme fraction
T1 sequence (P43235 115-329): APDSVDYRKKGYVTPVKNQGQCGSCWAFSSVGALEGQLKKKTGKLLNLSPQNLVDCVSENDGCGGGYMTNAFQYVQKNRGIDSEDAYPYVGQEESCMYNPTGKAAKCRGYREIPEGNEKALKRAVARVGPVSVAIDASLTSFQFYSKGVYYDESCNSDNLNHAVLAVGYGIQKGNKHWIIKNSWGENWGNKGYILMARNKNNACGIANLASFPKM
Procedure, shortened: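 Enzyme was HEK293T-expressed cathepsin K in pH 5.5 acetate buffer with 2 mM DTT, preincubated 15 min at room temperature with compound. Reaction started with Z-Leu-Arg-MCA (solution prepared at 10 μM), run 30 min, and AMC fluorescence read at 355/460 nm. IC50 taken from the curve of % inhibition vs DMSO.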

Row | Residual Rate at 25 minutes (%) [1] | IC50 (cathepsin K) | Compound
1 | 90% | ≤ 3.16 nM | CC[C@@H](CNc1ccc(N2CCC[C@H](C(=O)O)C2)cc1)NC(=O)[C@H](CC(C)(C)F)N[C@@H](c1ccccc1)C(F)(F)F [Compound 151]
2 | 88% | ≤ 3.16 nM | CC[C@@H](CNc1ccc(N2CCC[C@@H](C(=O)O)C2)cc1)NC(=O)[C@H](CC(C)(C)F)N[C@@H](c1ccccc1)C(F)(F)F [Compound 152]
3 | 31% | ≤ 3.16 nM | CC[C@@H](CNc1ccc(OCCCC(=O)O)cc1OC)NC(=O)[C@H](CC(C)C)N[C@@H](c1ccccc1)C(F)(F)F [Compound 155]
4 | 101% | 3.16 to 31.6 nM | CC[C@@H](CNc1ccc(OC(C)C(=O)O)cc1OC)NC(=O)[C@H](CC(C)(C)F)N[C@@H](c1ccccc1)C(F)(F)F (stereo partly drawn) [Compound 140, 2-{4-[((2S)-2-{(2S)-2-[((1S)-2,2,2-trifluoro-1-phenylethyl)amino]-4-fluoro-4-methylpentanoylamino}butyl)amino]-3-methoxyphenoxy}propanoic acid]
5 | 85% | ≤ 3.16 nM | CC[C@@H](CNc1ccc(N2CCC[C@H](C(=O)O)C2)cc1)NC(=O)[C@H](CC(C)C)N[C@@H](c1ccccc1)C(F)(F)F [Compound 148]
6 | 96% | ≤ 3.16 nM | CC[C@@H](CNc1ccc(N2CCO[C@@H](C(=O)O)C2)cc1)NC(=O)[C@H](CC(C)C)N[C@@H](c1ccccc1)C(F)(F)F [Compound 150]
7 | 88% | ≤ 3.16 nM | CC[C@@H](CNc1ccc(N2CCC(C(=O)O)CC2)cc1)NC(=O)[C@H](CC(C)C)N[C@@H](c1ccccc1)C(F)(F)F [Compound 145]
8 | 70% | 31.6 to 10000 nM | CC[C@@H](CNc1ccc(OC(F)(F)C(=O)O)cc1OC)NC(=O)[C@H](CC(C)(C)F)N[C@@H](c1ccccc1)C(F)(F)F [Compound 141]
9 | 90% | ≤ 3.16 nM | CC(C)(F)C[C@H](N[C@@H](c1ccccc1)C(F)(F)F)C(=O)N[C@@H](CCCC(=O)O)CNc1ccc(N2CCOCC2)cc1 [Compound 160, (5S)-5-{(2S)-2-[((1S)-2,2,2-trifluoro-1-phenylethyl)amino]-4-fluoro-4-methylpentanoylamino}-6-[(4-morpholin-4-ylphenyl)amino]hexanoic acid]
10 | 53% | 3.16 to 31.6 nM | CC[C@@H](CNc1ccc(N2CCC(C(=O)O)CC2)cc1)NC(=O)[C@H](CC(C)C)N[C@@H](Cc1ccccc1)C(F)(F)F [Compound 153]
11 | – | 31.6 to 10000 nM | COc1ccc(NC[C@H](CC[S+](C)[O-])NC(=O)[C@H](CC(C)C)N[C@@H](c2ccccc2)C(F)(F)F)c(OC)c1 (stereo partly drawn) [Compound 139, (2S)—N-((1S)-1-{[(2,4-dimethoxyphenyl)amino]methyl}-3-(methylsulfinyl)propyl)-2-[((1S)-2,2,2-trifluoro-1-phenylethyl)amino]-4-methylpentanamide]

Continued, compound first:

Row | Compound | Residual Rate at 25 minutes (%) [1] | IC50 (cathepsin K)
12 | CC(C)C[C@H](N[C@@H](c1ccccc1)C(F)(F)F)C(=O)N[C@@H](CCCCN)CNc1ccc(N2CCOCC2)cc1 [Compound 126] | 90% | ≤ 3.16 nM
13 | CC[C@@H](CNc1ccc(OCC(=O)O)cc1OC)NC(=O)[C@H](CC(C)C)N[C@@H](c1ccc(OC)nc1)C(F)(F)F [Compound 120] | 108% | ≤ 3.16 nM
14 | CC[C@@H](CNc1ccc(-c2ccccc2)cc1)NC(=O)[C@H](CC(C)C)N[C@@H](c1ccc(OC)nc1)C(F)(F)F [Compound 46] | 65% | 31.6 to 10000 nM
15 | CC(C)C[C@H](N[C@@H](c1ccccc1)C(F)(F)F)C(=O)N[C@@H](CCCNC(=N)N)CNc1ccc(N2CCOCC2)cc1 [Compound 101] | 67% | ≤ 3.16 nM
16 | CC[C@@H](CNc1ccc(OC)cc1OC)NC(=O)[C@H](CC(C)(C)F)N[C@@H](c1ccccc1)C(F)(F)F [Compound 7, (2S)—N-((1S)-1-{[(2,4-dimethoxyphenyl)amino]methyl}propyl)-2-[((1S)-2,2,2-trifluoro-1-phenylethyl)amino]-4-fluoro-4-methylpentanamide] | 0% | ≤ 3.16 nM
17 | CC[C@@H](CNc1ccc(OC2(C(=O)O)CC2)cc1OC)NC(=O)[C@H](CC(C)(C)F)N[C@@H](c1ccccc1)C(F)(F)F [Compound 118] | 76% | ≤ 3.16 nM
18 | CC(C)C[C@H](N[C@@H](c1ccccc1)C(F)(F)F)C(=O)N[C@@H](CCCN)CNc1ccc(N2CCOCC2)cc1 [Compound 127] | 87% | 3.16 to 31.6 nM
19 | CC[C@@H](CNc1ccc(N2CCOCC2)cc1)NC(=O)[C@H](CC(C)C)N[C@@H](c1ccc(=O)n(C)c1)C(F)(F)F [Compound 43] | 46% | ≤ 3.16 nM
20 | CC[C@@H](CNc1ccc(N2CCOCC2)cc1)NC(=O)[C@H](CC(C)C)N[C@@H](c1ccc(=O)[nH]c1)C(F)(F)F [Compound 31] | 77% | ≤ 3.16 nM
21 | CC(C)C[C@H](N[C@@H](c1ccccc1)C(F)(F)F)C(=O)N[C@@H](CCN)CNc1ccc(N2CCOCC2)cc1 [Compound 129] | 75% | 3.16 to 31.6 nM
22 | CN(C)C[C@@H](CNc1ccc(N2CCOCC2)cc1)NC(=O)[C@H](CC(C)(C)F)N[C@@H](c1ccccc1)C(F)(F)F [Compound 107] | 50% | ≤ 3.16 nM
23 | CC(C)C[C@H](Nc1cscc1-c1ccc(N2CCNCC2)cc1)C(=O)NCCNc1ccc(OCc2ccccc2)cc1 [B, reference compound] | 0% | –
24 | CC[C@@H](CNc1ccc(OC)cc1OC)NC(=O)[C@H](CC(C)(C)F)N[C@@H](c1ccc(-c2ccc(S(C)(=O)=O)cc2)cc1)C(F)(F)F [Compound 5, (2S)—N-((1S)-1-{[(2,4-dimethoxyphenyl)amino]methyl}propyl)-2-[((1S)-2,2,2-trifluoro-1-{4-[4-(methylsulfonyl)phenyl]phenyl}ethyl)amino]-4-fluoro-4-methylpentanamide] | 0% | ≤ 3.16 nM
25 | CC(C)(F)C[C@H](N[C@@H](c1ccccc1)C(F)(F)F)C(=O)N[C@@H](CCN)CNc1ccc(N2CCOCC2)cc1 [Compound 130] | 85% | 3.16 to 31.6 nM
26 | CC[C@@H](CNc1ccc(N2CCOCC2)cc1)NC(=O)[C@H](CC(C)C)N[C@@H](c1ccc(F)cc1)C(F)(F)F [Compound 36] | 0% | ≤ 3.16 nM
27 | COc1ccc(NC[C@H](C)NC(=O)[C@H](CC(C)C)N[C@@H](c2ccccc2)C(F)(F)F)c(OC)c1 [Compound 70] | – | ≤ 3.16 nM
28 | CC(C)C[C@H](N[C@@H](c1ccccc1)C(F)(F)F)C(=O)N[C@H](CNc1ccc(N2CCOCC2)cc1)CN(C)C [Compound 106] | – | ≤ 3.16 nM
29 | COc1ccc(NC[C@H](C)NC(=O)C2(NC(c3ccccc3)C(F)(F)F)CCCCC2)c(OC)c1 (stereo partly shown) [Compound 110] | – | 31.6 to 10000 nM
30 | CC[C@@H](CNc1ccc(OCC[S+](C)[O-])cc1OC)NC(=O)[C@H](CC(C)(C)F)N[C@@H](c1ccc(Br)cc1)C(F)(F)F (stereo partly drawn) [Compound 138-1, (2S)-2-{[(1S)-1-(4-bromophenyl)-2,2,2-trifluoroethyl]amino}-N-{(1S)-1-[({2-methoxy-4-[2-(methylsulfinyl)ethoxy]phenyl}amino)methyl]propyl}-4-fluoro-4-methylpentanamide] | – | ≤ 3.16 nM
31 | CC(C)C[C@H](N[C@@H](c1ccccc1)C(F)(F)F)C(=O)N[C@@H](C)CNc1ccc(N2CCOCC2)cc1 [Compound 71] | – | ≤ 3.16 nM
32 | CCOC(=O)C1CCN(c2ccc(NC[C@H](CC)NC(=O)[C@H](CC(C)C)N[C@@H](c3ccc(OC)nc3)C(F)(F)F)cc2)CC1 [Compound 50] | – | ≤ 3.16 nM
33 | CC[C@@H](CNc1ccc(OC)cc1OC)NC(=O)C1(NC(c2ccccc2)C(F)(F)F)CCCCC1 (stereo partly drawn) [Compound 8, N-((1S)-1-{[(2,4-dimethoxyphenyl)amino]methyl}propyl){[(2,2,2-trifluoro-1-phenylethyl)amino]cyclohexyl}carboxamide] | – | 3.16 to 31.6 nM
34 | CC[C@@H](CNc1ccc(OC)cc1OC)NC(=O)[C@@H](N[C@@H](c1ccccc1)C(F)(F)F)[C@@H](C)CC [Compound 60] | – | 3.16 to 31.6 nM
